Tested on: 282377-053-R-J1-PDC complex spheroid viability
Assay: Anticancer human tumor 282377-053-R-J1-PDC patient-derived colon adenocarcinoma cell line growth inhibition [RAS]
Details: for IC50: curve of first compound; for viability, T/C: stronger effect = lower value; active = viability on the fitted dose curve at most 10% of control; inactive = the rest
Excerpt: RAS pathway inhibitors in Combinations in Complex Spheroids
A high-throughput screen of multi-cell type tumor spheroids was designed to identify active combinations of RAS pathway inhibitors and targeted small molecules. Complex spheroids include a stromal component modeled by human endothelial cells (HUVEC) and fibroblasts modeled by human mesenchymal stem cells (MSCs). The concentration ranges selected for each drug and investigational agent were based upon clinically achievable concentrations if the clinical Cmax of the agent was known.
Compounds. The drugs and investigational agents: abemaciclib (NSC768073), cobimetinib (NSC768068), divarasib (GDC6063, NSC841802), docetaxel (NSC628503), GDC-1971 (RLY-1971, NSC841576), gemcitabine (NSC613327), inavolisib (NSC800729), ipatasertib (NSC767898), KB-0742 (NSC834161), MRTX-1133 (NSC836407), osimertinib (NSC779217), RMC-4630 (NSC839698), RMC-6236 (NSC851965), RMC-6291 (NSC852671), Ro-3306 (NSC812927), sapanisertib (NSC764658), SN-38 (NSC673596), staurosporine (NSC755774), SY5609 (NSC837396), and tovorafenib (DAY101, NSC766906), were obtained from the National Cancer Institute (NCI) Developmental Therapeutics Program Chemical Repository. The FDA-approved anticancer drug set is available from the NCI Developmental Therapeutics Program. […] The stock solutions were prepared in dimethyl sulfoxide (DMSO, Sigma-Aldrich, St. Louis, MO, cat. D2650) at 800-fold the tested concentration and stored at -70 degrees C prior to their use. All drugs and investigational agents were tested over a range starting from a high concentration at or near the clinical Cmax and decreasing in half-log increments. If the clinical Cmax for an agent had not been determined, the highest concentration tested was 10 microM.
Cell Culture. All cells were maintained in an incubator at 37 degrees C and 5% CO2 with 95% humidity. The PDC lines were cultured according to standard operating procedures established by the NCI PDMR. All PDCs were thawed and cultured in Matrigel-coated flasks prepared with a working solution of 1X Ham's F-12 nutrient mix, without supplementation (Invitrogen, Waltham, MA, cat. 11765054), 100 U/mL penicillin-streptomycin (Invitrogen, cat. 15140122), and 2.5% Matrigel (Corning Inc., Corning, NY, cat. 354248) for the first three passages. The 362531-283-R-J2-PDC and 782815-120-R-J1-PDC lines were cultured in 6C/Colon 1B media, which includes advanced DMEM/F-12 (Thermo Fisher Scientific, cat. 12634028), 10 mM HEPES (Thermo Fisher Scientific, cat. 15630080), 1X GlutaMAX supplement (Thermo Fisher Scientific, cat. 35050061), 0.1 mg/mL primocin (InvivoGen, San Diego, CA, cat. ant-pm-2), 10% defined fetal bovine serum, heat inactivated (HyClone Laboratories Inc., Logan, UT, cat. SH30070.03HI), 50% L-WRN conditioned media (ATCC, cat. CRL-3276), 1.25 mM N-Acetyl-L-cysteine (Sigma-Aldrich, cat. A9165), 10 mM nicotinamide (Sigma-Aldrich, cat. N0636), 1X B-27 supplement (Thermo Fisher Scientific, cat. 17504044), 1X N-2 supplement (Thermo Fisher Scientific, cat. 17502048), 50 ng/mL human EGF (Thermo Fisher Scientific, cat. PHG0311), and 10 microM Y-27632 dihydrochloride (Tocris Bioscience, cat. 1254). The K12877-001-R-J1-PDC line was cultured in 6I media, which includes all 6C/Colon 1B media plus 10 ng/mL human FGF-10 (PeproTech, cat. 100-26), 1 ng/mL human FGF-2 (PeproTech, cat. 100-18B), 1 µM prostaglandin E2 (Tocris Bioscience, cat. 2296), […] hydrocortisone (Sigma-Aldrich, cat. H4001), and […] bovine insulin (Sigma-Aldrich, cat. I6634). The K86415-001-R-J1-PDC line was cultured in 6D media, which includes all 6C/Colon 1B media components minus the L-WRN conditioned media. The 485176-168-R4-J1-PDC was cultured in PANC media, which includes all 6C/Colon 1B media plus 100 ng/mL human FGF-10 (PeproTech, cat. 100-26), 500 nM SB-431542 (Selleckchem, cat. S1067), and 10 nM gastrin (Tocris Bioscience, cat. 3006). […]
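Note: spheroids exposed to agents for seven days before readout.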
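Throughout, for viability, T/C: luminescence viability as percent of DMSO vehicle control wells.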

CC(=O)OC12COC1CC(O)C1(C)C(=O)C(O)C3=C(C)C(OC(=O)C(O)C(NC(=O)OC(C)(C)C)c4ccccc4)CC(O)(C(OC(=O)c4ccccc4)C21)C3(C)C (centres undefined) + C#Cc1c(F)ccc2cc(O)cc(-c3ncc4c(N5CC6CCC(C5)N6)nc(OCC56CCCN5CC(F)C6)nc4c3F)c12
< 31.6 nM: IC50 (second compound 0.0316 µM) | IC50 (second compound 0.1 µM) | IC50 (second compound 0.316 µM) | IC50 (second compound 1 µM) | IC50 (second compound 3.16 µM) | IC50 (second compound 10 µM)
inactive: viability, T/C (second compound 0.0316 µM, first compound 0.0316 µM) 21.9% | viability, T/C (second compound 0.0316 µM, first compound 0.1 µM) 20.5% | viability, T/C (second compound 0.0316 µM, first compound 0.316 µM) 23.9% | viability, T/C (second compound 0.0316 µM, first compound 1 µM) 29.7% | viability, T/C (second compound 0.0316 µM, first compound 3.16 µM) 43.1% | viability, T/C (second compound 0.0316 µM, first compound 10 µM) 52.1% | viability, T/C (second compound 0.1 µM, first compound 0.0316 µM) 25.4% | viability, T/C (second compound 0.1 µM, first compound 0.1 µM) 23.1% | viability, T/C (second compound 0.1 µM, first compound 0.316 µM) 23.4% | viability, T/C (second compound 0.1 µM, first compound 1 µM) 28.7% | viability, T/C (second compound 0.1 µM, first compound 3.16 µM) 49.8% | viability, T/C (second compound 0.1 µM, first compound 10 µM) 69.4% | viability, T/C (second compound 0.316 µM, first compound 0.0316 µM) 28.6% | viability, T/C (second compound 0.316 µM, first compound 0.1 µM) 24.7% | viability, T/C (second compound 0.316 µM, first compound 0.316 µM) 26.7% | viability, T/C (second compound 0.316 µM, first compound 1 µM) 30.2% | viability, T/C (second compound 0.316 µM, first compound 3.16 µM) 47.4% | viability, T/C (second compound 0.316 µM, first compound 10 µM) 67.2% | viability, T/C (second compound 1 µM, first compound 0.0316 µM) 32.6% | viability, T/C (second compound 1 µM, first compound 0.1 µM) 25% | viability, T/C (second compound 1 µM, first compound 0.316 µM) 26.6% | viability, T/C (second compound 1 µM, first compound 1 µM) 33% | viability, T/C (second compound 1 µM, first compound 3.16 µM) 60.6% | viability, T/C (second compound 1 µM, first compound 10 µM) 61.5% | viability, T/C (second compound 3.16 µM, first compound 0.0316 µM) 27.9% | viability, T/C (second compound 3.16 µM, first compound 0.1 µM) 29.2% | viability, T/C (second compound 3.16 µM, first compound 0.316 µM) 31.4% | viability, T/C (second compound 3.16 µM, first compound 1 µM) 39.6% | viability, T/C (second compound 3.16 µM, first compound 3.16 µM) 58.5% | viability, T/C (second compound 3.16 µM, first compound 10 µM) 66% | viability, T/C (second compound 10 µM, first compound 0.0316 µM) 32.1% | viability, T/C (second compound 10 µM, first compound 0.1 µM) 31.8% | viability, T/C (second compound 10 µM, first compound 0.316 µM) 41.6% | viability, T/C (second compound 10 µM, first compound 1 µM) 49.3% | viability, T/C (second compound 10 µM, first compound 3.16 µM) 77.7% | viability, T/C (second compound 10 µM, first compound 10 µM) 78.7%

CCc1c2c(nc3ccc(O)cc13)-c1cc3c(c(=O)n1C2)COC(=O)[C@]3(O)CC + C#Cc1c(F)ccc2cc(O)cc(-c3ncc4c(N5CC6CCC(C5)N6)nc(OCC56CCCN5CC(F)C6)nc4c3F)c12
inactive: viability, T/C (second compound 0.0316 µM, first compound 0.000949 µM) 97% | viability, T/C (second compound 0.0316 µM, first compound 0.003 µM) 131% | viability, T/C (second compound 0.0316 µM, first compound 0.00949 µM) 120% | viability, T/C (second compound 0.0316 µM, first compound 0.03 µM) 96.8% | viability, T/C (second compound 0.0316 µM, first compound 0.0949 µM) 88.2% | viability, T/C (second compound 0.0316 µM, first compound 0.3 µM) 53% | viability, T/C (second compound 0.1 µM, first compound 0.000949 µM) 113% | viability, T/C (second compound 0.1 µM, first compound 0.003 µM) 122% | viability, T/C (second compound 0.1 µM, first compound 0.00949 µM) 130% | viability, T/C (second compound 0.1 µM, first compound 0.03 µM) 95.8% | viability, T/C (second compound 0.1 µM, first compound 0.0949 µM) 84.5% | viability, T/C (second compound 0.1 µM, first compound 0.3 µM) 61.4% | viability, T/C (second compound 0.316 µM, first compound 0.000949 µM) 117% | viability, T/C (second compound 0.316 µM, first compound 0.003 µM) 128% | viability, T/C (second compound 0.316 µM, first compound 0.00949 µM) 109% | viability, T/C (second compound 0.316 µM, first compound 0.03 µM) 101% | viability, T/C (second compound 0.316 µM, first compound 0.0949 µM) 85.6% | viability, T/C (second compound 0.316 µM, first compound 0.3 µM) 55.6% | viability, T/C (second compound 1 µM, first compound 0.000949 µM) 108% | viability, T/C (second compound 1 µM, first compound 0.003 µM) 104% | viability, T/C (second compound 1 µM, first compound 0.00949 µM) 113% | viability, T/C (second compound 1 µM, first compound 0.03 µM) 95.3% | viability, T/C (second compound 1 µM, first compound 0.0949 µM) 80.1% | viability, T/C (second compound 1 µM, first compound 0.3 µM) 61% | viability, T/C (second compound 3.16 µM, first compound 0.000949 µM) 115% | viability, T/C (second compound 3.16 µM, first compound 0.003 µM) 127% | viability, T/C (second compound 3.16 µM, first compound 0.00949 µM) 125% | viability, T/C (second compound 3.16 µM, first compound 0.03 µM) 100% | viability, T/C (second compound 3.16 µM, first compound 0.0949 µM) 97.5% | viability, T/C (second compound 3.16 µM, first compound 0.3 µM) 66.3% | viability, T/C (second compound 10 µM, first compound 0.000949 µM) 97.1% | viability, T/C (second compound 10 µM, first compound 0.003 µM) 112% | viability, T/C (second compound 10 µM, first compound 0.00949 µM) 116% | viability, T/C (second compound 10 µM, first compound 0.03 µM) 102% | viability, T/C (second compound 10 µM, first compound 0.0949 µM) 87.9% | viability, T/C (second compound 10 µM, first compound 0.3 µM) 63.5%
> 300 nM: IC50 (second compound 0.0316 µM) | IC50 (second compound 0.1 µM) | IC50 (second compound 0.316 µM) | IC50 (second compound 1 µM) | IC50 (second compound 3.16 µM) | IC50 (second compound 10 µM)

From PubChem BioAssay AID2060905 (Molecular Pharmacology Branch, DTP, NCI, 2025)
